Measurements from PMC7180452, “Purine and Purine Isostere Derivatives of Ferrocene: An Evaluation of ADME, Antitumor and Electrochemical Properties” (Molecules, 2020).

How the values were obtained:
[1] = Square-wave and cyclic voltammetry on glassy carbon electrode; format: physicochemical; conditions: SWV, 0.5 mol/L NaClO4, pH 9, vs Ag/AgCl
Excerpt: The electrochemical properties of 6-chloro-7-deazapurine and 6-chloropurine derivatives of ferrocene 11c, 13a and 15b on a glassy carbon electrode were studied using cyclic (CV) and square-wave voltammetry (SWV) in aqueous electrolyte solutions over a wide pH range. The pH was varied from 2 to 10 in order to determine the effect of pH on the voltammograms (net peak currents and potentials). […] The pH of the solution affects the voltammetric response of this compound, i.e., the oxidation of evaluated compounds 11c, 13a and 15b is strongly dependent on it.
The forward (if) and backward (ib) components of the net response (Δi = if − ib) are shown as well (inset in Figure 2). […] The peak P1 occurs in all supporting electrolytes (i.e., at 2 ≤ pH ≤ 10), while the peak P2 is only observed at pH ≥ 9 (see Figure 1). The potential of peak P1 is pH-independent. Comparing to the literature data, peak P1 can be ascribed to the following charge transfer reaction [Fe^II(C5H5)2] ⇌ [Fe^III(C5H5)2]^+ + e^− [44, 48].
All chemicals used in the experiments were of the best grade commercially available (Sigma-Aldrich) and were used without further purification. Stock standard solutions of compounds 11c, 13a, 15b (c = 2.0 × 10^−3 mol/L) and 6-chloropurine (c = 1.2 × 10^−2 mol/L) were prepared from dry pure substances in dimethyl sulfoxide (DMSO, p.a.), purchased from Kemika (Zagreb, Croatia). Stock standard solution of ethynyl ferrocene (c = 1.1 × 10^−2 mol/L) was prepared from dry pure substance in ethanol (Kemika). For the supporting electrolyte, analytical grade NaClO4 (Kemika) was used. Water was deionized by the Millipore Milli-Q system to the resistivity ≥ 18 MΩcm. Voltammetric measurements were carried out using the computer-controlled electrochemical system „PGSTAT 101“ (Eco-Chemie, Utrecht, The Netherlands), controlled by the electrochemical software “NOVA 1.5”. A three-electrode system (BioLogic, Claix, France) with glassy carbon electrode (GCE) of 3 mm in diameter as a working electrode, Ag/AgCl (3 mol/L NaCl) as a reference electrode and a platinum wire as a counter electrode were used. All potentials were expressed versus Ag/AgCl (3 mol/L NaCl) reference electrode. The supporting electrolyte (0.5 mol/L NaClO4), adjusted to the desired pH value, was placed in the electrochemical cell and the required aliquot of the standard analyte solution was added. The solution in the electrochemical cell was degassed with high purity nitrogen for 10 min before measurement, and the nitrogen blanket was maintained thereafter. Before each run, the glassy carbon working electrode was polished with diamond suspension in spray (grain size 6 µm) and rinsed with ethanol and deionized water. All experiments were performed at room temperature. The presented results are reported as the mean value of three independent measurements.

[2] = system: metastatic colorectal adenocarcinoma (SW620); experiment: In vitro antiproliferative activity, SW620; format: cell-based, human; conditions: SW620 cells
Description: (§1) Antiproliferative activity of compounds 11a−11c, 12a−12c, 13a−13c, 14a−14c, 15a−15c, 16a, 23a−23c, 24a−24c, 25a−25c, 34a−34c and 35a−35c was evaluated in vitro on four human tumor cell lines (American Type Culture Collection, Manassas, VA, USA): metastatic colorectal adenocarcinoma (SW620), ductal pancreatic adenocarcinoma (CFPAC-1), hepatocellular carcinoma (HepG2) and cervical carcinoma (HeLa) as well as normal skin fibroblasts (HFF).

[3] = system: ductal pancreatic adenocarcinoma (CFPAC-1); experiment: In vitro antiproliferative activity, CFPAC-1; format: cell-based, human; conditions: CFPAC-1 cells
Description: as §1

[4] = system: hepatocellular carcinoma (HepG2); experiment: In vitro antiproliferative activity, HepG2; format: cell-based, human; conditions: HepG2 cells
Description: as §1

[5] = system: cervical carcinoma (HeLa); experiment: In vitro antiproliferative activity, HeLa; format: cell-based, human; conditions: HeLa cells
Description: as §1

[6] = system: normal skin fibroblasts (HFF); experiment: Cytotoxicity on non-tumor cells, HFF; format: cell-based, human
Description: as §1

[7] = pH 7.4

Row | SMILES | Oxidation peak P2 potential (triazole) [1] | IC50 [2] [µM] | IC50 [3] [µM] | IC50 [4] [µM] | IC50 [5] [µM] | IC50 [6] [µM] | Chrom logD [7]
1 | Clc1ncnc2nc[nH]c12 [6-chloropurine, reference compound] | No anodic peak P2 was detected |  |  |  |  |  | 
2 | C#Cc1cc[cH-]c1.[Fe+2].c1cc[cH-]c1 [ethynyl ferrocene, reference compound] | No anodic peak P2 was detected |  |  |  |  |  | 
3 | [Fe+2].c1cc[cH-]c1.c1ccc2c(c1)ncn2Cc1cn(C[c-]2cccc2)nn1 [Compound 23a, 1-[1-(1-Ferrocenylmethyl-1,2,3-triazol-4-yl)methyl]-1H-benzimidazole] |  | 97 ± 13.6 | 64.6 ± 12.2 | 59.9 ± 10.9 | > 100 | 23.8 ± 3.32 | 4.56
4 | [Fe+2].c1cc[cH-]c1.c1ccc2c(c1)ncn2Cc1cn(-[c-]2cccc2)nn1 [Compound 23c, 1-[1-(1-Ferrocenyl-1,2,3-triazol-4-yl)methyl]-1H-benzimidazole] |  | > 100 | > 100 | > 100 | > 100 | > 100 | 4.45
